{"source": "patent US20090325923A1", "about": "“NEW METHOD FOR THE TREATMENT OF INFLAMMATORY DISEASES” (TOPOTARGET SWITZERLAND SA, priority 2006, published 2009)", "key": {"[1]": {"test_system": "Human monocytic cell line THP-1", "test": "LPS-stimulated cytokine secretion by ELISA in THP-1 cells", "type": "cell-based", "conditions": "THP-1, overnight increasing doses of FK866, LPS 6 h", "protocol": "(§1) Human monocytic cell line THP-1 was cultured overnight in the presence of graded doses of nicotinic acid (NA), a precursor of NAD, and then stimulated with lipopolysaccharide (LPS) from gram-negative bacteria for 2 h. The cell supernatant was tested for tumor necrosis factor (TNF) content by ELISA and the intracellular pool of NAD was measured by an enzymatic assay.\n(§2) Human monocytic cell line THP-1, human peripheral blood mononuclear cells (PBMC), human monocyte-derived dendritic cells, or mouse peritoneal macrophages were isolated and cultured overnight with increasing doses of FK866, and then stimulated with LPS for 6 h. The culture supernatants were tested for TNF and IL-6 content by ELISA\nTHP-1 cells were incubated in the presence of 10 nM FK866 and graded doses of NMN. Cells were further stimulated with LPS and intracellular NAD levels and TNFα secretion were determined using standard assays.\nas §1, with “This example illustrates the direct relationship between NAD levels in cells and pro-inflammatory cytokine secretion. Human” for “Human”, “of” for “of graded doses of”, “acid,” for “acid (NA),”\nas §2, with “This example describes the inhibition of pro-inflammatory cytokines production by the competitive small molecular weight compound inhibitor of NMPRT, ((E)-N-[4-(1-benzoylpiperidin-4-yl)butyl]-3-(pyridin-3-yl)acrylamide, designated FK866). Human” for “Human”, “ELISA.” for “ELISA”\nThis example illustrates that NAMPT is the only molecular target of FK866. […]"}, "[2]": {"test_system": "human peripheral blood mononuclear cells (PBMC)", "test": "LPS-stimulated TNF and IL-6 secretion by ELISA in PBMC", "type": "cell-based", "conditions": "overnight increasing doses of FK866, LPS 6 h", "protocol": "as §2\nas §2, with “This example describes the inhibition of pro-inflammatory cytokines production by the competitive small molecular weight compound inhibitor of NMPRT, ((E)-N-[4-(1-benzoylpiperidin-4-yl)butyl]-3-(pyridin-3-yl)acrylamide, designated FK866). Human” for “Human”, “ELISA.” for “ELISA”"}, "[3]": {"test_system": "mouse peritoneal macrophages", "test": "LPS-stimulated TNF and IL-6 secretion by ELISA in peritoneal macrophages", "type": "cell-based", "conditions": "overnight increasing doses of FK866, LPS 6 h", "protocol": "as §2\nas §2, with “This example describes the inhibition of pro-inflammatory cytokines production by the competitive small molecular weight compound inhibitor of NMPRT, ((E)-N-[4-(1-benzoylpiperidin-4-yl)butyl]-3-(pyridin-3-yl)acrylamide, designated FK866). Human” for “Human”, “ELISA.” for “ELISA”"}, "[4]": {"test_system": "Human PBMC", "test": "MTT cell viability assay in PBMC", "type": "cell-based", "conditions": "overnight increasing doses of FK866, LPS 6 h", "protocol": "(§3) (A) Human PBMC were isolated and cultured overnight with increasing doses of FK866, and then stimulated with LPS for 6 h. At the end of the culture, cell viability was assessed using the MTT (3-(4,5-Dimethylthiazol-2-yl)-2,5-diphenyltetrazolium bromide) assay.\nas §3, with “This example illustrates that the inhibition of proinflammatory cytokine secretion induced by lowering intracellular NAD levels is not due to apoptosis induction.” for “(A)”"}, "[5]": {"test_system": "human monocyte-derived dendritic cells", "test": "Annexin-V and propidium iodide survival assay in dendritic cells", "type": "cell-based", "conditions": "overnight increasing doses of FK866, LPS 6 h, vs untreated cells", "protocol": "(B) Human monocyte-derived dendritic cells were isolated and cultured overnight with increasing doses of FK866, and then stimulated with LPS for 6 h. At the end of the culture, the survival of cells was measured by Annexin-V and propidium iodide staining.\nIn another experiment, human monocyte-derived dendritic cells were isolated and cultured overnight with increasing doses of FK866, and then stimulated with LPS for 6 h."}, "[6]": {"test_system": "collagen-induced arthritis", "test": "Collagen-induced arthritis (CIA) mouse model", "type": "in vivo"}, "[7]": {"test_system": "Peritoneal exudates cells (PEC)", "test": "Intracellular NAD in thioglycollate-elicited peritoneal exudate cells in vivo", "design": "species or system mouse", "protocol": "Mice were treated with thioglycollate to elicit PEC, and then received 10 mg/kg FK866 by ip injection. PEC were obtained by lavage after different time points and intracellular NAD was determined. Data are mean±sem of 3 mice per group.\n(§4) Mice were treated with thioglycollate to elicit PEC, and then received 10 mg/kg FK866 or placebo by ip injection 7 h before ip challenge with LPS. Mean serum TNFα at 90 min+sem of 3 mice per group is shown. PEC were obtained by lavage and intracellular NAD was determined. Data are mean±sem of 3 mice per group.\nThis example illustrates that FK866 reduces intracellular NAD level in inflammatory cells in vivo. Naïve mice were treated ip with thioglycollate to elicit inflammatory cells, and then FK866 was administered ip at 10 mg/kg. Peritoneal exudates cells (PEC) were obtained by lavage at different time points after treatment, and intracellular NAD levels were determined using an enzymatic assay.\n(§5) This example illustrates that NAMPT inhibition reduces circulating TNFα during endotoxemia and correlates with diminished intracellular NAD in inflammatory cells. Naïve mice were treated ip with thioglycollate to elicit inflammatory cells, and then were treated ip with placebo or 10 mg/kg FK866 7 h before an intraperitoneal injection of LPS. Mice were bled 90 min later for evaluation of serum TNFα levels."}, "[8]": {"test_system": "TNFα", "test": "Serum TNFα after LPS challenge (endotoxemia)", "type": "in vivo, mouse", "conditions": "10 mg/kg ip 7 h before ip LPS, bled 90 min later, vs placebo", "protocol": "as §4, §5"}, "[9]": {"conditions": "10 mg/kg ip twice daily, 14 days, 0-3 histological score, vs placebo"}, "[10]": {"conditions": "CIA mice, end of the experiment"}}}
{"smiles": "O=C(/C=C/c1cccnc1)NCCCCC1CCN(C(=O)c2ccccc2)CC1", "note": "[FK866, (E)-N-[4-(1-benzoylpiperidin-4-yl)butyl]-3-(pyridine-3-yl)-acrylamide]", "values": [{"measurement": "cytokine secretion (TNF and IL-6)", "setting": "[1]", "result": "inhibited cytokine secretion in a dose-dependent fashion"}, {"measurement": "cytokine secretion (TNF and IL-6)", "setting": "[2]", "result": "inhibited cytokine secretion in a dose-dependent fashion"}, {"measurement": "cytokine secretion (TNF and IL-6)", "setting": "[3]", "result": "inhibited cytokine secretion in a dose-dependent fashion"}, {"measurement": "cell viability (MTT)", "setting": "[4]", "result": "not affected"}, {"measurement": "survival of cells (Annexin-V and propidium iodide staining)", "setting": "[5]", "result": "no difference in survival"}, {"measurement": "inflammatory infiltrate in knee joint sections", "setting": "[6]; [9]", "result": "statistically significant decrease"}, {"measurement": "synovial hyperplasia in knee joint sections", "setting": "[6]; [9]", "result": "statistically significant decrease"}, {"measurement": "histology of knees and paws", "setting": "[6]; 10 mg/kg ip twice daily, 14 days, vs placebo", "result": "much less inflammation"}, {"measurement": "paw inflammation", "setting": "[6]; 10 mg/kg ip twice daily, after 2 weeks of treatment, vs placebo", "result": "minimal signs of inflammation"}, {"measurement": "effect on established CIA (dose-response)", "setting": "[6]; 2, 5 or 10 mg/kg ip twice daily for 15 days", "result": "marked protective dose-dependent effect"}, {"measurement": "IL-1β in paw tissue extracts", "setting": "[6]; [10]", "result": "significantly reduced"}, {"measurement": "IL-6 in paw tissue extracts", "setting": "[6]; [10]", "result": "significantly reduced"}, {"measurement": "IL-10 secretion in paw tissue extracts", "setting": "[6]; [10]", "result": "remained unchanged"}, {"measurement": "MCP-1 in paw tissue extracts", "setting": "[6]; [10]", "result": "decreased"}, {"measurement": "symptoms of arthritis (clinical score)", "setting": "[6]; DBA/1 mice, 10 mg/kg ip twice daily for 15 days from clinical score ≧1", "result": "ameliorates the symptoms of arthritis"}, {"measurement": "severity of arthritis in CIA mice", "setting": "[6]; FK866 10 mg/kg ip twice daily or etanercept 15 mg/kg every three days, over 15 days", "result": "activity similar to etanercept"}, {"measurement": "time until beneficial effect apparent after commencement of treatment", "setting": "[6]; established CIA", "result": "≤ 10", "unit": "days"}, {"measurement": "dose of maximal therapeutic effect on CIA", "setting": "[6]; ip twice daily for 15 days", "result": 10, "unit": "mg/kg"}, {"measurement": "Serum amyloid A protein (SAA) levels", "setting": "[6]; sera of CIA mice at day 14, ELISA, vs placebo", "result": "decreased"}, {"measurement": "time of NAD nadir after injection", "setting": "[7]; 10 mg/kg ip", "result": 9, "unit": "h"}, {"measurement": "time of NAD recovery after injection", "setting": "[7]; 10 mg/kg ip", "result": "around 14 h"}, {"measurement": "intracellular NAD in PECs", "setting": "[7]; 10 mg/kg ip 7 h before ip LPS, same mice, vs placebo", "result": "significant decrease"}, {"measurement": "intracellular NAD in PEC (macrophages) in vivo", "setting": "[7]; 10 mg/kg ip, lavage at different time points", "result": "significant time-dependent NAD depletion"}, {"measurement": "circulating (serum) TNFα levels", "setting": "[8]", "result": "significant decrease"}]}
